Here are results for 104 molecules from PubChem BioAssay AID1996.

Converted amounts (≈) assume the structure as drawn.

For this data set the following is noted: buffer; pH 7.4; 200.0 µM.
Broadly, the solubility (kinetic) is the concentration staying in solution when a stock, usually in DMSO, is diluted into the medium. Take `Cl.O=C(/C=C/c1ccco1)OCC1CCCN2CCCCC12` (centres undefined): the solubility (kinetic) is > 48.9 µg/mL.
The figure for `CCOc1ncccc1C(=O)OCC(=O)c1ccc(Br)s1` is > 55.5 µg/mL; for `Cc1cccc(NC(=O)c2ccc3[nH]c(=O)c(=O)[nH]c3c2)n1` it is 17.7 µg/mL (≈ 59.7 µM); for `O=Cc1c[nH]c2ccc(OCc3ccccc3)cc12` it is < 0.5 µg/mL.
The value for `COC(=O)c1ccc(OC(=O)CN2C(=O)c3ccccc3C2=O)cc1` was 50.6 µg/mL (≈ 149 µM); that for `COc1ccc2oc(C(=O)OCC(=O)N3CCCCC3C)c(C)c2c1` (centres undefined) was > 51.8 µg/mL.
The figure for `Cc1ccc(S(=O)(=O)N2CCC[C@H]2C(=O)OCC(=O)N2CCc3ccccc32)cc1` is 10.8 µg/mL (≈ 25.2 µM).
`COc1ccccc1CNc1nc(C)c(C(C)=O)s1` showed a kinetic solubility of 12.1 µg/mL (≈ 43.8 µM).
The figure for `COc1cccc(C(=O)Nc2nc3ccccc3s2)c1` is 1.6 µg/mL (≈ 5.63 µM).
As to `O=C(/C=C/c1ccccc1[N+](=O)[O-])OCC(=O)N1CCCC1`, the kinetic solubility was > 45.6 µg/mL.
The figure for `Nc1cccc(C(=O)Nc2cccc3ncccc23)c1` is > 39.5 µg/mL.
The value for `CC(C)(C)c1ccc(C(=O)O/N=C(\N)c2ccccn2)cc1` was 2.4 µg/mL (≈ 8.07 µM); that for `Cc1cc(N2Cc3ccccc3C2)ccc1C=O` was 7.1 µg/mL (≈ 29.9 µM); that for `Cc1ccc(C(=O)COc2nc(C)nc3ccccc23)cc1` was 4.3 µg/mL (≈ 14.7 µM).
The value for `Cc1cc2oc(=O)sc2cc1NS(=O)(=O)c1ccccc1` was 42.8 µg/mL (≈ 133 µM); that for `CC(C)c1ccc(/C=C/c2[nH]c(=O)[nH]c(=O)c2[N+](=O)[O-])cc1` was 19.3 µg/mL (≈ 64.1 µM).
`Cc1ccccc1NS(=O)(=O)c1cccc2nonc12`: the kinetic solubility was > 43.4 µg/mL.
With `CSC1=NCCN1C(=O)Cc1cccc2ccccc12`, the kinetic solubility stood at 20.4 µg/mL (≈ 71.7 µM).
The figure for `Cc1cccc(-c2noc(CNS(=O)(=O)c3ccccc3)n2)c1` is > 49.4 µg/mL; for `CC(C(=O)Nc1ccc(Cl)cc1)N1C(=O)NC2(CCCC2)C1=O` (centres undefined) it is 25.8 µg/mL (≈ 76.8 µM); for `CC(=O)NC(Cc1ccccc1)Cc1ccccc1` it is > 38 µg/mL.
In the case of `N#Cc1c(N)n(-c2ccc(C(=O)O)cc2)c2nc3ccccc3nc12`, the solubility (kinetic) worked out at 28.5 µg/mL (≈ 86.5 µM).
The figure for `N/C(=N\OC(=O)COc1ccccc1)c1ccncc1` is > 40.7 µg/mL; for `Cc1ccccc1OCc1nc(-c2cccnc2)no1` it is 30.2 µg/mL (≈ 113 µM); for `Cc1ccc(CN2CC(C(=O)Nc3ncccc3C)CC2=O)cc1` (centres undefined) it is > 48.5 µg/mL.
In the case of `CCNc1nc(NCC)nc(N(C#N)C(C)C)n1`, the kinetic solubility is > 37.4 µg/mL.
The value for `Cc1ccc(-c2noc(CN(C)C(=O)c3ccoc3C)n2)cc1` was 34.4 µg/mL (≈ 110 µM); that for `Cc1ccc(OCCCC(=O)NC(C)c2ccccc2)c(C)c1` (centres undefined) was 22.6 µg/mL (≈ 72.6 µM).
The figure for `COc1ccc(C(=O)CNc2ccc3ccccc3c2)cc1` is 2.6 µg/mL (≈ 8.92 µM); for `CCOC(=O)Cn1cc(C#N)c2cccc(CC)c21` it is 35.3 µg/mL (≈ 138 µM).
As for `Cc1ccc2c(c1)sc(C)[n+]2CCCS(=O)(=O)[O-]`, the kinetic solubility was > 42.8 µg/mL.
In the case of `CCSS(=O)(=O)c1cccc2cccnc12`, the kinetic solubility was > 38 µg/mL.
As for `COc1ccc(NC(=O)COC(=O)c2ccc3ccccc3n2)c(OC)c1`, the kinetic solubility stood at 3 µg/mL (≈ 8.19 µM).
The value for `Cc1cc(C(=O)Nc2ccccc2)c2ccccc2n1` was 3 µg/mL (≈ 11.4 µM); that for `COC(=O)CNC(=O)COC(=O)c1cc(SC)ccc1Cl` was > 49.8 µg/mL; that for `Nn1c(SCC(=O)Nc2ccc(N3CCOCC3)cc2)nnc1C1CC1` was > 56.2 µg/mL.
The value for `CN1CCN(c2nc3ccccc3nc2C(C#N)S(=O)(=O)c2ccccc2)CC1` (centres undefined) was > 61.1 µg/mL; that for `CC1CC(C)CN(C(=O)CSc2ncnc3sccc23)C1` (centres undefined) was 17.1 µg/mL (≈ 53.2 µM); that for `Cc1c(F)cccc1NC(=O)c1ccc2c(c1)CCN2S(C)(=O)=O` was 4.4 µg/mL (≈ 12.6 µM).
The value for `CN1C(=O)[C@H](Cc2ccc([N+](=O)[O-])cc2)NC1=S` was 28.1 µg/mL (≈ 106 µM).
As for `COc1ccccc1NC(=O)c1ccc2nc(C)c(C)nc2c1`, the kinetic solubility came out at 16.3 µg/mL (≈ 53 µM). Against the preceding molecule, the solubility kinetic is about 1.7-fold lower.
The figure for `O=C(O)c1ccc(Cn2cnc3cccnc32)cc1` is > 38 µg/mL; for `COc1ccc(CCC(=O)NC(C)C2CCCO2)cc1` (centres undefined) it is > 41.6 µg/mL.
For the molecule `CC(NC(=O)c1cc2ccccc2oc1=O)c1ccccc1` (centres undefined), the solubility (kinetic) was 3.8 µg/mL (≈ 13 µM).
The figure for `O=C(COc1cccc(C(F)(F)F)c1)NCC(c1ccco1)N1CCCC1` (centres undefined) is 45.1 µg/mL (≈ 118 µM); for `COc1ccc(/C(=N/Nc2ncnc3ccccc23)C(=O)O)cc1` it is > 48.3 µg/mL; for `CCn1c(=O)c(C(=O)Nc2ccccc2F)c(O)c2ccccc21` it is 0.4 µg/mL (≈ 1.23 µM).
The figure for `Cl.ClCCN1CCN(c2ccnc3cc(Cl)ccc23)CC1` is > 57.5 µg/mL.
The figure for `CC(C)CN1C(=O)c2ccc(NC(=O)Cc3ccccc3)cc2C1=O` is < 0.4 µg/mL; for `Cc1ccc(C(=O)N2CCN(c3ccc(C(F)(F)F)cn3)CC2)o1` it is 19.8 µg/mL (≈ 58.4 µM); for `CC1(C)CC(=O)C=C(Nc2ccccc2C#N)C1.Cl` it is 38.2 µg/mL.
For `Cc1cccc(N=C2CSC(=O)N2)c1`, the solubility (kinetic) was > 30.9 µg/mL.
`CCN(CC)c1ccc(NC(=O)c2ccc3c(c2)OCO3)c(C)c1` displayed a kinetic solubility of 5.4 µg/mL (≈ 16.5 µM).
The value for `CN=c1scc(-c2ccccc2F)n1/N=C/c1ccc(O)c(O)c1O` was > 53.9 µg/mL; that for `CCC1CCCCN1C(=O)COC(=O)c1cccs1` (centres undefined) was > 42.2 µg/mL; that for `CC(=O)Nc1c(O)c2cccc3c2n(c1=O)CCC3` was 36.5 µg/mL (≈ 141 µM).
The value for `COc1ccccc1CCC(=O)NCCCn1ccc2ccccc21` was 27.2 µg/mL (≈ 80.8 µM).
As to `CCOC(=O)c1c(N)c2cc([N+](=O)[O-])ccc2n1C`, the kinetic solubility is < 0.2 µg/mL.
Turning to `CCCOC(=O)Nc1ccc(S(=O)(=O)Nc2ncccn2)cc1`, the solubility (kinetic) is > 50.5 µg/mL.
The figure for `S=c1[nH]nc(Nc2ccccc2)s1` is > 31.4 µg/mL; for `Cc1c(C(=O)N(C)Cc2ccc(OC(F)F)cc2)oc2ccccc12` it is 6.5 µg/mL (≈ 18.8 µM); for `O=C(Cc1c[nH]c2ccccc12)NCc1ccncc1` it is > 39.8 µg/mL.
As to `Brc1ccccc1C1Nc2cccc3cccc(c23)N1`, the solubility (kinetic) turned out to be 2.8 µg/mL (≈ 8.61 µM).
As for `S=C(Nc1cccnc1)NC1CC2CCC1C2` (centres undefined), the kinetic solubility is > 37.1 µg/mL.
As to `CCOc1ccc(CN2CCC(Cc3ccccc3)CC2)cc1`, the solubility (kinetic) was determined as 24.3 µg/mL (≈ 78.5 µM).
The figure for `O=C(c1cccc(S(=O)(=O)N2CCc3ccccc32)c1)N1CCOCC1` is 54.8 µg/mL (≈ 147 µM); for `CC1CCCCC1NC(=O)Cn1cnc2c1c(=O)n(C)c(=O)n2C` (centres undefined) it is > 50 µg/mL; for `COc1ccc(C(=O)COC(=O)c2ccccn2)cc1OC` it is 44.5 µg/mL (≈ 148 µM).
The value for `Cc1ccc(N2C(S)=C(C#N)C(=O)NC2c2ccco2)cc1` (centres undefined) was > 46.7 µg/mL; that for `COC(OC)c1ccnc(-c2ccc(OC(=O)c3ccccc3)cc2)n1` was < 0.4 µg/mL.
The figure for `COc1cccc(C(O)Cc2nc3ccccc3n2C)c1OC` (centres undefined) is > 46.9 µg/mL; for `S=C(NCc1ccco1)N1CCN(c2cccc(Cl)c2)CC1` it is 12 µg/mL (≈ 35.7 µM); for `Cc1cc(OCC(=O)N2CCN(CC(=O)N3CCOCC3)CC2)c(C(C)C)cc1Cl` it is > 65.7 µg/mL.
`CC(C)(C)C(=O)Nc1ccc(F)cc1[N+](=O)[O-]` displayed a kinetic solubility of 13.8 µg/mL (≈ 57.4 µM).
The value for `Cn1c(=O)c([N+](=O)[O-])c(-n2cnc3ccccc32)c2ccccc21` was > 48 µg/mL; that for `COC(=O)C1=C(N)OC2=C(C(=O)CCC2)C1c1ccccc1OC` (centres undefined) was 14.5 µg/mL (≈ 44 µM).
`COC(=O)c1scc(S(=O)(=O)C(C)(C)C)c1-n1cccc1` yielded a kinetic solubility of 35.6 µg/mL (≈ 109 µM).
For the molecule `COc1ccc(OC)c2nc(-c3ccc4c(c3)OCO4)ccc12`, the solubility (kinetic) is < 0.7 µg/mL.
The value for `CCN1CCN(CCC(=O)Nc2ccc(C)cc2)CC1.Cl` was > 46.8 µg/mL; that for `Nc1cc(=O)[nH]c(SCC(=O)Nc2cc([N+](=O)[O-])ccc2Cl)n1` was 4.4 µg/mL (≈ 12.4 µM).
The value for `Cc1ccccc1N1C(=O)C2C3CCC(O3)C2C1=O` (centres undefined) was > 38.6 µg/mL; that for `O=C(NCc1ccco1)c1ccc2[nH]c(=O)c(=O)[nH]c2c1` was > 42.8 µg/mL; that for `CC(C)c1nc(Cl)c(C#N)c2c1CCC2` was 4.3 µg/mL (≈ 19.5 µM).
The molecule `CN(CCc1ccccc1)c1ccc([N+](=O)[O-])cn1` yielded a solubility (kinetic) of 9.6 µg/mL (≈ 37.3 µM). Compared with the last molecule, the solubility kinetic is about 2.2-fold higher.
For the molecule `O=C1C2CC(O)CN2C(=S)N1Cc1ccccc1` (centres undefined), the kinetic solubility is > 39.3 µg/mL.
The figure for `COc1ccc(N2CCCC2)c(NC(=O)COc2ccccc2)c1` is 3.8 µg/mL (≈ 11.6 µM); for `O=C1CCCN1C(=O)CSc1ccc2ccccc2n1` it is 41.9 µg/mL (≈ 146 µM); for `Cc1csc(NC(=O)c2ccc(Br)s2)n1` it is 24.9 µg/mL (≈ 82.1 µM).
The value for `COc1ccc(OCC(O)CNC(=O)Nc2cc(C)cc(C)c2)cc1` (centres undefined) was 3.8 µg/mL (≈ 11 µM); that for `CCCC(=O)OCC[N+](C)(C)C.[Cl-]` was > 31.5 µg/mL.
The figure for `Cn1c(=O)c2c(O)c(C=NCc3ccccc3)c(=O)n(C)c2n(C)c1=O` is 51.3 µg/mL (≈ 145 µM); for `CCCCn1c(CCNC(=O)c2ccco2)nc2ccccc21` it is > 46.7 µg/mL; for `Cc1ccc(CCC(=O)Nc2cc(Cl)ccc2Cl)o1` it is 1.9 µg/mL (≈ 6.37 µM).
Consider `Cc1ccc(OCC(=O)NCCNC(=O)c2cnccn2)cc1`, for which the kinetic solubility was 40.9 µg/mL (≈ 130 µM).
The figure for `CCn1cc(CCCC(=O)NCc2cccnc2)c2ccccc21` is > 48.2 µg/mL; for `COc1ccc(NC(=O)c2ccc(-c3ccc([N+](=O)[O-])cc3)o2)cc1` it is 1.2 µg/mL (≈ 3.55 µM).
Take `O=C(O)c1c(N2CCCCC2)ccc([N+](=O)[O-])c1N1CCCCC1`: the solubility (kinetic) was 46.4 µg/mL (≈ 139 µM).
The figure for `CCC1CCCCN1Cc1c(O)ccc2c(=O)c(-c3ccccc3OC)coc12` (centres undefined) is 51.3 µg/mL (≈ 130 µM).
The value for `O=C(N/C(=C/c1ccco1)C(=O)N1CCOCC1)c1cccs1` was > 49.9 µg/mL.
The figure for `COc1cccc(NC(=S)NC(=O)Cc2ccccc2)c1` is 16 µg/mL (≈ 53.3 µM); for `Cc1c(Cl)cccc1NC(=O)Nc1cc(C(C)(C)C)on1` it is < 0.2 µg/mL.
Consider `COc1ccccc1CC(=O)NCCCc1ccccc1`, for which the solubility (kinetic) was > 42.5 µg/mL.
In the case of `CNC(=O)CSc1nc(-c2ccccc2)c(-c2ccccc2)o1`, the solubility (kinetic) is 3.3 µg/mL (≈ 10.2 µM).
The value for `Cn1cc(-c2cc(C(=O)O)on2)cn1` was > 29 µg/mL.
